Patent US7524869B2, “Taxanes having a C10 ester substituent” (Florida State University Research Foundation, Inc., priority 2000, dated 2009)

Tested on: HCT116
Experiment: In vitro cytotoxicity measured by the cell colony formation assay
Type: cell-based
Conditions: HCT116 cells, 72 h drug incubation, colonies counted after 7 days; ID50 = drug concentration producing 50% inhibition of colony formation; read-out: IN VITRO ID 50 (nm) HCT116
Experimental: In Vitro Cytotoxicity Measured by the Cell Colony Formation Assay
Four hundred cells (HCT116) were plated in 60 mm Petri dishes containing 2.7 mL of medium (modified McCoy's 5a medium containing 10% fetal bovine serum and 100 units/mL penicillin and 100 µg/mL streptomycin). The cells were incubated in a CO2 incubator at 37° C. for 5 h for attachment to the bottom of Petri dishes. The compounds identified in Example 2 were made up fresh in medium at ten times the final concentration, and then 0.3 mL of this stock solution was added to the 2.7 mL of medium in the dish. The cells were then incubated with drugs for 72 h at 37° C. At the end of incubation the drug-containing media were decanted, the dishes were rinsed with 4 mL of Hank's Balance Salt Solution (HBSS), 5 mL of fresh medium was added, and the dishes were returned to the incubator for colony formation. The cell colonies were counted using a colony counter after incubation for 7 days.

| Compound | IC50 [nM] |
| --- | --- |
| CC(=O)OC12COC1CC(O)C1(C)C(=O)C(OC(=O)C(C)C)C3=C(C)C(OC(=O)C(O)C(C=C(C)C)NC(=O)OC(C)(C)C)CC(O)(C(OC(=O)c4ccccc4)C21)C3(C)C (centres unmarked) [Compound 2226] | < 1 |
| CC(=O)OC12COC1CC(O)C1(C)C(=O)C(OC(=O)C(C)C)C3=C(C)C(OC(=O)C(O)C(NC(=O)OC(C)(C)C)c4ccccn4)CC(O)(C(OC(=O)c4ccccc4)C21)C3(C)C (centres unmarked) [Compound 2238] | < 1 |
| CC(=O)O[C@@]12CO[C@@H]1C[C@H](O)[C@@]1(C)C(=O)[C@H](OC(=O)C(C)C)C3=C(C)[C@@H](OC(=O)[C@H](O)[C@@H](NC(=O)OC(C)(C)C)c4cccnc4)C[C@@](O)([C@@H](OC(=O)c4ccccc4)C12)C3(C)C (some centres unmarked) [Compound 2242] | < 10 |
| CC(=O)O[C@@]12CO[C@@H]1C[C@H](O)[C@@]1(C)C(=O)[C@H](OC(=O)C(C)C)C3=C(C)[C@@H](OC(=O)[C@H](O)[C@@H](NC(=O)OC(C)(C)C)c4ccncc4)C[C@@](O)([C@@H](OC(=O)c4ccccc4)C12)C3(C)C (some centres unmarked) [Compound 2255] | < 1 |
| CC(=O)O[C@@]12CO[C@@H]1C[C@H](O)[C@@]1(C)C(=O)[C@H](OC(=O)C(C)C)C3=C(C)[C@@H](OC(=O)[C@H](O)[C@@H](NC(=O)OC(C)(C)C)c4ccco4)C[C@@](O)([C@@H](OC(=O)c4ccccc4)C12)C3(C)C (some centres unmarked) [Compound 2269] | < 1 |
| CC(=O)O[C@@]12CO[C@@H]1C[C@H](O)[C@@]1(C)C(=O)[C@H](OC(=O)C(C)C)C3=C(C)[C@@H](OC(=O)[C@H](O)[C@@H](NC(=O)OC(C)(C)C)c4ccoc4)C[C@@](O)([C@@H](OC(=O)c4ccccc4)C12)C3(C)C (some centres unmarked) [Compound 2273] | < 1 |
| CC(=O)O[C@@]12CO[C@@H]1C[C@H](O)[C@@]1(C)C(=O)[C@H](OC(=O)C(C)C)C3=C(C)[C@@H](OC(=O)[C@H](O)[C@@H](NC(=O)OC(C)(C)C)c4cccs4)C[C@@](O)([C@@H](OC(=O)c4ccccc4)C12)C3(C)C (some centres unmarked) [Compound 2287] | < 1 |
| CC(=O)O[C@@]12CO[C@@H]1C[C@H](O)[C@@]1(C)C(=O)[C@H](OC(=O)C(C)C)C3=C(C)[C@@H](OC(=O)[C@H](O)[C@@H](NC(=O)OC(C)(C)C)c4ccsc4)C[C@@](O)([C@@H](OC(=O)c4ccccc4)C12)C3(C)C (some centres unmarked) [Compound 2291] | < 1 |
| CC(=O)O[C@@]12CO[C@@H]1C[C@H](O)[C@@]1(C)C(=O)[C@H](OC(=O)C(C)C)C3=C(C)[C@@H](OC(=O)[C@H](O)[C@@H](NC(=O)OC(C)(C)C)C(C)C)C[C@@](O)([C@@H](OC(=O)c4ccccc4)C12)C3(C)C (some centres unmarked) [Compound 2306] | < 10 |
| CC(=O)O[C@@]12CO[C@@H]1C[C@H](O)[C@@]1(C)C(=O)[C@H](OC(=O)C(C)C)C3=C(C)[C@@H](OC(=O)[C@H](O)[C@@H](NC(=O)OC(C)(C)C)C4CCC4)C[C@@](O)([C@@H](OC(=O)c4ccccc4)C12)C3(C)C (some centres unmarked) [Compound 2319] | < 10 |
| CC(=O)O[C@@]12CO[C@@H]1C[C@H](O)[C@@]1(C)C(=O)[C@H](OC(=O)C(C)C)C3=C(C)[C@@H](OC(=O)[C@H](O)[C@@H](NC(=O)OC(C)(C)C)c4ccc([N+](=O)[O-])cc4)C[C@@](O)([C@@H](OC(=O)c4ccccc4)C12)C3(C)C (some centres unmarked) [Compound 2320] | < 1 |
| C/C=C/C(=O)O[C@H]1C(=O)[C@@]2(C)C([C@H](OC(=O)c3ccccc3)[C@]3(O)C[C@H](OC(=O)[C@H](O)[C@H](C=C(C)C)NC(=O)OC(C)(C)C)C(C)=C1C3(C)C)[C@]1(OC(C)=O)CO[C@@H]1C[C@@H]2O (some centres unmarked) [Compound 2332] | < 1 |
| C/C=C/C(=O)O[C@H]1C(=O)[C@@]2(C)C([C@H](OC(=O)c3ccccc3)[C@]3(O)C[C@H](OC(=O)[C@H](O)[C@@H](NC(=O)OC(C)(C)C)c4ccccn4)C(C)=C1C3(C)C)[C@]1(OC(C)=O)CO[C@@H]1C[C@@H]2O (some centres unmarked) [Compound 2348] | < 1 |
| C/C=C/C(=O)O[C@H]1C(=O)[C@@]2(C)C([C@H](OC(=O)c3ccccc3)[C@]3(O)C[C@H](OC(=O)[C@H](O)[C@@H](NC(=O)OC(C)(C)C)c4cccnc4)C(C)=C1C3(C)C)[C@]1(OC(C)=O)CO[C@@H]1C[C@@H]2O (some centres unmarked) [Compound 2353] | < 10 |
| C/C=C/C(=O)O[C@H]1C(=O)[C@@]2(C)C([C@H](OC(=O)c3ccccc3)[C@]3(O)C[C@H](OC(=O)[C@H](O)[C@@H](NC(=O)OC(C)(C)C)c4ccncc4)C(C)=C1C3(C)C)[C@]1(OC(C)=O)CO[C@@H]1C[C@@H]2O (some centres unmarked) [Compound 2366] | < 1 |
| C/C=C/C(=O)O[C@H]1C(=O)[C@@]2(C)C([C@H](OC(=O)c3ccccc3)[C@]3(O)C[C@H](OC(=O)[C@H](O)[C@@H](NC(=O)OC(C)(C)C)c4ccco4)C(C)=C1C3(C)C)[C@]1(OC(C)=O)CO[C@@H]1C[C@@H]2O (some centres unmarked) [Compound 2379] | < 1 |

| Compound | IC50 [nM] |
| --- | --- |
| C/C=C/C(=O)O[C@H]1C(=O)[C@@]2(C)C([C@H](OC(=O)c3ccccc3)[C@]3(O)C[C@H](OC(=O)[C@H](O)[C@@H](NC(=O)OC(C)(C)C)c4ccoc4)C(C)=C1C3(C)C)[C@]1(OC(C)=O)CO[C@@H]1C[C@@H]2O (some centres unmarked) [Compound 2380] | < 1 |
| C/C=C/C(=O)O[C@H]1C(=O)[C@@]2(C)C([C@H](OC(=O)c3ccccc3)[C@]3(O)C[C@H](OC(=O)[C@H](O)[C@@H](NC(=O)OC(C)(C)C)c4cccs4)C(C)=C1C3(C)C)[C@]1(OC(C)=O)CO[C@@H]1C[C@@H]2O (some centres unmarked) [Compound 2392] | < 1 |
| C/C=C/C(=O)O[C@H]1C(=O)[C@@]2(C)C([C@H](OC(=O)c3ccccc3)[C@]3(O)C[C@H](OC(=O)[C@H](O)[C@@H](NC(=O)OC(C)(C)C)c4ccsc4)C(C)=C1C3(C)C)[C@]1(OC(C)=O)CO[C@@H]1C[C@@H]2O (some centres unmarked) [Compound 2408] | < 1 |
| C/C=C/C(=O)O[C@H]1C(=O)[C@@]2(C)C([C@H](OC(=O)c3ccccc3)[C@]3(O)C[C@H](OC(=O)[C@H](O)[C@@H](NC(=O)OC(C)(C)C)C(C)C)C(C)=C1C3(C)C)[C@]1(OC(C)=O)CO[C@@H]1C[C@@H]2O (some centres unmarked) [Compound 2413] | < 10 |
| C/C=C/C(=O)O[C@H]1C(=O)[C@@]2(C)C([C@H](OC(=O)c3ccccc3)[C@]3(O)C[C@H](OC(=O)[C@H](O)[C@@H](NC(=O)OC(C)(C)C)C4CCC4)C(C)=C1C3(C)C)[C@]1(OC(C)=O)CO[C@@H]1C[C@@H]2O (some centres unmarked) [Compound 2424] | < 10 |
| C/C=C/C(=O)O[C@H]1C(=O)[C@@]2(C)C([C@H](OC(=O)c3ccccc3)[C@]3(O)C[C@H](OC(=O)[C@H](O)[C@@H](NC(=O)OC(C)(C)C)c4ccc([N+](=O)[O-])cc4)C(C)=C1C3(C)C)[C@]1(OC(C)=O)CO[C@@H]1C[C@@H]2O (some centres unmarked) [Compound 2439] | < 10 |
| C/C=C/C(=O)O[C@H]1C(=O)[C@@]2(C)C([C@H](OC(=O)c3ccccc3)[C@]3(O)C[C@H](OC(=O)[C@H](O)[C@@H](NC(=O)OC(C)(C)C)c4ccccc4)C(C)=C1C3(C)C)[C@]1(OC(C)=O)CO[C@@H]1C[C@@H]2O (some centres unmarked) [Compound 2442] | < 1 |
| CC(=O)O[C@@]12CO[C@@H]1C[C@H](O)[C@@]1(C)C(=O)[C@H](OC(=O)C=C(C)C)C3=C(C)[C@@H](OC(=O)[C@H](O)[C@H](C=C(C)C)NC(=O)OC(C)(C)C)C[C@@](O)([C@@H](OC(=O)c4ccccc4)C12)C3(C)C (some centres unmarked) [Compound 2455] | < 10 |
| CC(=O)O[C@@]12CO[C@@H]1C[C@H](O)[C@@]1(C)C(=O)[C@H](OC(=O)C=C(C)C)C3=C(C)[C@@H](OC(=O)[C@H](O)[C@@H](NC(=O)OC(C)(C)C)c4ccccn4)C[C@@](O)([C@@H](OC(=O)c4ccccc4)C12)C3(C)C (some centres unmarked) [Compound 2464] | < 1 |
| CC(=O)O[C@@]12CO[C@@H]1C[C@H](O)[C@@]1(C)C(=O)[C@H](OC(=O)C=C(C)C)C3=C(C)[C@@H](OC(=O)[C@H](O)[C@@H](NC(=O)OC(C)(C)C)c4ccncc4)C[C@@](O)([C@@H](OC(=O)c4ccccc4)C12)C3(C)C (some centres unmarked) [Compound 2472] | < 1 |
| CC(=O)O[C@@]12CO[C@@H]1C[C@H](O)[C@@]1(C)C(=O)[C@H](OC(=O)C=C(C)C)C3=C(C)[C@@H](OC(=O)[C@H](O)[C@@H](NC(=O)OC(C)(C)C)c4ccco4)C[C@@](O)([C@@H](OC(=O)c4ccccc4)C12)C3(C)C (some centres unmarked) [Compound 2488] | < 1 |
| CC(=O)O[C@@]12CO[C@@H]1C[C@H](O)[C@@]1(C)C(=O)[C@H](OC(=O)C=C(C)C)C3=C(C)[C@@H](OC(=O)[C@H](O)[C@@H](NC(=O)OC(C)(C)C)c4ccoc4)C[C@@](O)([C@@H](OC(=O)c4ccccc4)C12)C3(C)C (some centres unmarked) [Compound 2499] | < 1 |
| CC(=O)O[C@@]12CO[C@@H]1C[C@H](O)[C@@]1(C)C(=O)[C@H](OC(=O)C=C(C)C)C3=C(C)[C@@H](OC(=O)[C@H](O)[C@@H](NC(=O)OC(C)(C)C)c4cccs4)C[C@@](O)([C@@H](OC(=O)c4ccccc4)C12)C3(C)C (some centres unmarked) [Compound 2503] | < 1 |
| CC(=O)O[C@@]12CO[C@@H]1C[C@H](O)[C@@]1(C)C(=O)[C@H](OC(=O)C=C(C)C)C3=C(C)[C@@H](OC(=O)[C@H](O)[C@@H](NC(=O)OC(C)(C)C)c4ccsc4)C[C@@](O)([C@@H](OC(=O)c4ccccc4)C12)C3(C)C (some centres unmarked) [Compound 2511] | < 1 |
| CC(=O)O[C@@]12CO[C@@H]1C[C@H](O)[C@@]1(C)C(=O)[C@H](OC(=O)C=C(C)C)C3=C(C)[C@@H](OC(=O)[C@H](O)[C@@H](NC(=O)OC(C)(C)C)c4ccccc4)C[C@@](O)([C@@H](OC(=O)c4ccccc4)C12)C3(C)C (some centres unmarked) [Compound 2520] | < 10 |
| CC(=O)O[C@@]12CO[C@@H]1C[C@H](O)[C@@]1(C)C(=O)[C@H](OC(=O)C3CC3)C3=C(C)[C@@H](OC(=O)[C@H](O)[C@@H](NC(=O)OC(C)(C)C)c4ccoc4)C[C@@](O)([C@@H](OC(=O)c4ccccc4)C12)C3(C)C (some centres unmarked) [Compound 2781] | < 1 |
